Like-named read-outs stand apart in the source and are kept apart here.
Assays:
[1] = tested on: 1205Lu melanoma xenograft; assay: Tumor volume of 1205Lu melanoma xenografts; assay type: in vivo, mice; conditions: 1205Lu xenografts
WM9 melanoma cells = assay: Induction of apoptosis and cell death by PSVue 643 staining in WM9 melanoma cells; assay type: cell-based, human; conditions: WM9, 72 h
Experimental: Adherent melanoma cells were harvested with 0.05% Trypsin-EDTA and were washed once with 1×DPBS. Cells were labeled with CellTrace™ Violet according to the manufacturer's protocol and were allowed to adhere to tissue culture plates overnight following the drug treatment. […] Cells were then immediately subjected to FACS analysis using a BD LSR II flow cytometer and at least 5,000 cells per sample were acquired.
Cell suspensions were kept in the dark at room temperature for 5 min. 0.2 ml 1×PBS supplemented with 10% FBS was added to each cell suspension and cells were immediately analyzed by BD LSRII.
Briefly, autophagic flux was assessed by FACS analysis of WM9 cells expressing the mCherry-eGFPLC3B construct that were transfected with the indicated siRNAs targeting autophagy and ER stress response and treated for 72 h with DMSO or the combination of PLX4720 at 10 μM and PD0325901 at 1 μM. The data represent the average of 2 biological replicates. […] Autophagic flux was assessed by FACS analysis of WM9 cells expressing the mCherry-eGFPLC3B construct treated for 72 h with Gamitrinib at 1 μM or Spautin-1 at 10 μM in combination with PLX4720 at 10 μM/PD0325901 at 1 μM. Cells treated with DMSO were used as the control for setting up the gate.

MitoBiogenesis [2] = conditions: Malme-3M and COLO829, 8 h; public gene expression microarray data; cited from earlier work
[3] = tested on: CCLE melanoma cell lines with BRAFV600 mutations; conditions: MitoB high vs low subgroups, two sample t-test; cited from earlier work
[4] = tested on: mitochondrial respiratory chain complex subunits; assay: Expression of mitochondrial respiratory chain complex subunits in WM9 cells (qRT-PCR, RPPA, immunoblot); assay type: cell-based, human; conditions: qRT-PCR
Experimental: One μg total mRNA was reverse transcribed using a Maxima First Strand cDNA Synthesis Kit for qRT-PCR (Thermo Fisher). Fast SYBR® Green Master Mix (Life Technologies) was used with cDNA template and primers to evaluate the expression of target genes and GAPDH. Primers used were purchased from Integrated DNA Technologies. Amplifications were performed using an Applied Biosystems® 7500 Real-Time PCR System (Life Technologies). All experiments were performed in triplicate. Expression ratios of controls were normalized to 1. Please see Extended Experimental Procedures for the list of PCR primer sequences. The raw data of gene expression microarrays generated from Illumina Chips were normalized, background-corrected and summarized using the R package “lumi” (Du et al., 2008). […] To reduce false positives, the unexpressed probes were removed. The R package “limma” (Smyth, 2004, 2005) was employed for gene differential expression analysis, followed by multiple test correction by the Benjamini and Hochberg procedure (Benjamini and Hochberg, 1995). […] We also conducted GSEA as previously reported (Subramanian et al., 2005). For GSEA, we analyzed gene sets obtained from the Molecular Signatures Database (broadinstitute.org/gsea/msigdb/). The same differential expression analysis method was applied to RPPA data. Cells were washed with ice-cold PBS containing 100 μM Na3VO4 and scraped off culture dishes. After centrifugation, cell pellets were lysed in buffer containing 10 mM Tris-HCl, pH 7.8, 150 mM NaCl, 1 mM EDTA, 1% Nonidet P-40, 1 mM Na3VO4 and protease inhibitors (Roche complete protease inhibitor tablets). Lysates were cleared by micro-centrifugation and protein concentrations were determined with Protein Assay Dye Reagent Concentrate (Bio-Rad). For western blots, 25 μg of each lysate were run on 15-well 10% or 12% SDS-PAGE gels and transferred onto nitrocellulose membranes using a dye fast Trans-BlotR Turbo™ transfer system (Bio-Rad). Blots were blocked in SEA BLOCK Blocking Buffer (Thermo Scientific) diluted with 1×TBS at 1:1 ratio at room temperature for 1 h, incubated overnight with primary antibody at 4° C., stained with secondary antibodies conjugated to IRDye® Infrared Dyes (LI-COR Biosciences) and then visualized using an Odyssey flatbed scanner (LI-COR Biosciences).

MitoBiogenesis [5] = assay: Expression of 18 MitoBiogenesis genes in melanoma cells (microarray, qRT-PCR, immunoblot); assay type: cell-based, human; conditions: for expression of MitoBiogenesis: qRT-PCR, 72 h
Experimental: One μg total mRNA was reverse transcribed using a Maxima First Strand cDNA Synthesis Kit for qRT-PCR (Thermo Fisher). Fast SYBR® Green Master Mix (Life Technologies) was used with cDNA template and primers to evaluate the expression of target genes and GAPDH. Primers used were purchased from Integrated DNA Technologies. Amplifications were performed using an Applied Biosystems® 7500 Real-Time PCR System (Life Technologies). All experiments were performed in triplicate. Expression ratios of controls were normalized to 1. Please see Extended Experimental Procedures for the list of PCR primer sequences. Access of Gene Expression Microarray Data and TCGA Melanoma Patients' RNA-seq Data Time-course Illumina gene expression microarray data of WM9 melanoma cells were deposited at the NCBI Gene Expression Omnibus (GEO) (ncbi.nlm.nih.gov/geo/) under the accession number GSE58721. Normalized CCLE gene expression microarray data were directly downloaded from Broad CCLE (broadinstitute.org/ccle). Gene expression microarray data of A375 and SK-MEL-28 melanoma cells were downloaded from GEO under accession numbers GSE42872 and GSE37441, respectively. Gene expression microarray data of Malme-3M and COLO829 melanoma cells were downloaded from GEO under the accession number GSE51113. Normalized RNA-seq data of TCGA melanoma patients were downloaded from TCGA Data Portal (https://tcga-data.nci.nih.gov/tcga/). Cells were washed with ice-cold PBS containing 100 μM Na3VO4 and scraped off culture dishes. After centrifugation, cell pellets were lysed in buffer containing 10 mM Tris-HCl, pH 7.8, 150 mM NaCl, 1 mM EDTA, 1% Nonidet P-40, 1 mM Na3VO4 and protease inhibitors (Roche complete protease inhibitor tablets). Lysates were cleared by micro-centrifugation and protein concentrations were determined with Protein Assay Dye Reagent Concentrate (Bio-Rad). For western blots, 25 μg of each lysate were run on 15-well 10% or 12% SDS-PAGE gels and transferred onto nitrocellulose membranes using a dye fast Trans-BlotR Turbo™ transfer system (Bio-Rad). […]

[6] = tested on: BRAFV600E, VEGFR2, PDGFRB, c-KIT; conditions: cited from earlier work
[7] = tested on: BRAF(V600E), BRAF(wild type), c-RAF, VEGFR2, PDGFR, CSF1R, RET, c-KIT, SRC, STE20; conditions: range over several intracellular kinases; cited from earlier work
autophagic flux = assay: Autophagic flux in WM9 cells expressing mCherry-eGFP-LC3B; assay type: cell-based, human; conditions: WM9, 72 h, Gamitrinib 1 μM or Spautin-1 10 μM combined with PLX4720 10 μM/PD0325901 1 μM
Experimental: WM9 cells stably expressing pLVO-Puro-mCherry-eGFP-LC3 were analyzed with a BD LSR II flow cytometer. Fluorescence of mCherry and eGFP was recorded to derive the ratio of mCherryheight over eGFP-height. This ratio indicates the autophagic flux.
Briefly, autophagic flux was assessed by FACS analysis of WM9 cells expressing the mCherry-eGFPLC3B construct that were transfected with the indicated siRNAs targeting autophagy and ER stress response and treated for 72 h with DMSO or the combination of PLX4720 at 10 μM and PD0325901 at 1 μM. The data represent the average of 2 biological replicates. Induction of apoptosis and cell death was assessed by PSVue 643 staining in WM9 cells expressing the mCherry-eGFP-LC3B construct transfected with the indicated siRNAs targeting autophagy and ER stress response and treated for 72 h with DMSO or the combination of PLX4720 at 10 μM and PD0325901 at 1 μM. Autophagic flux was assessed by FACS analysis of WM9 cells expressing the mCherry-eGFPLC3B construct treated for 72 h with Gamitrinib at 1 μM or Spautin-1 at 10 μM in combination with PLX4720 at 10 μM/PD0325901 at 1 μM. Cells treated with DMSO were used as the control for setting up the gate. Induction of apoptosis and cell death was assessed by PSVue 643 staining in WM9 cells treated for 72 h with Gamitrinib at 1 μM or Spautin-1 at 10 μM in combination with PLX4720 at 10 μM/PD0325901 at 1 μM. […]

[8] = Table 6, mice treated 15 days, PLX4720 200 mg/kg diet, 2,4-DNP 20 mg/kg QD p.o., alone or combined

Compound: O=[N+]([O-])c1ccc(O)c([N+](=O)[O-])c1 [2,4-DNP, 2,4-dinitrophenol]
- tumor growth ([1]; 2,4-DNP alone or with PLX4720, combination compared to PLX4720 alone): failed to inhibit tumor growth
- % T/C (percentages of tumor volumes) [1, 8]: 101.96%

Compound: CC(=O)N[C@@H](CS)C(=O)O [NAC, N-acetyl-L-cysteine]
- apoptosis and cell death induced by the combination of Gamitrinib and MAPK pathway inhibitors (WM9 melanoma cells; NAC 5 mM): markedly suppress apoptosis and cell death

Compound: O=C(NOC[C@H](O)CO)c1ccc(F)c(F)c1Nc1ccc(I)cc1F [PD0325901]
- expression of MitoBiogenesis (MitoBiogenesis [2]): inhibited
- drug IC50 of cell lines with higher basal level of MitoBiogenesis versus lower [3]: significantly lower drug IC50

Compound: CCCS(=O)(=O)Nc1ccc(F)c(C(=O)c2c[nH]c3ncc(Cl)cc23)c1F [PLX4720]
- expression of 30 mitochondria respiratory chain complex subunits ([4]; WM9, 72 h): substantially up-regulated
- expression of 5 representative mitochondrial respiratory chain complex subunits ([4]; WM9, PLX4720 10 μM up to 120 h): up-regulated
- % T/C (percentages of tumor volumes) [1, 8]: 51.41%
- % T/C (percentages of tumor volumes) ([1]; Table 7, 17 days, PLX4720 200 mg/kg diet): 56.88%
- expression of MitoBiogenesis (MitoBiogenesis [5]; A375 cells): decreased the expression of MitoBiogenesis
- expression of MitoBiogenesis (protein) (MitoBiogenesis [5]; WM9 cells, PLX4720 10 μM, 72 h time course, immunoblotting): up-regulated in a time-dependent manner
- expression of MitoBiogenesis (MitoBiogenesis [5]; WM793 or WM9 cells): up-regulated MitoBiogenesis
- drug IC50 of cell lines with higher basal level of MitoBiogenesis versus lower [3]: significantly lower drug IC50

Compound: N=C(N)NC(=N)NCCc1ccccc1 [Phenformin, 1-phenethylbiguanide]
- apoptosis and cell death, compared with other inhibitors of the drug screen (WM9 melanoma cells; titrated doses combined with MAPK pathway inhibitors (PLX4720 10 μM, PD0325901 1 μM)): greater increase in apoptosis and cell death

Compound: Cn1c(Nc2ccc(C(F)(F)F)cc2)nc2cc(Oc3ccnc(-c4ncc(C(F)(F)F)[nH]4)c3)ccc21 [RAF265]
- potency in cell-based assays ([6]; BRAFV600E and VEGFR2): most potent
- potency in cell-based assays ([6]; PDGFRB and c-KIT): less active
- drug IC50 of cell lines with higher basal level of MitoBiogenesis versus lower [3]: significantly lower drug IC50

Compound: Fc1ccc(CNc2ncnc3ccc(F)cc23)cc1 [Spautin-1, reference compound]
- induction of apoptosis and cell death (WM9 melanoma cells; Spautin-1 10 μM combined with PLX4720 10 μM/PD0325901 1 μM): not able to trigger a significant induction of apoptosis and cell death
- autophagic flux (autophagic flux): effectively decreased the autophagic flux

From patent US20240207202A1, “COMBINATION THERAPIES TARGETING MITOCHONDRIAL BIOGENESIS FOR CANCER THERAPY” (The Wistar Institute of Anatomy and Biology, priority 2015, published 2024)
